This note sets out measurements from ChEMBL document CHEMBL1152692, “Synthesis and evaluation of ligands for D2-like receptors: the role of common pharmacophoric groups” (Bioorg Med Chem, 2009).

Calls of active or inactive are those of the source. The calls are words filed in the database; no cut-off is given here. Some results are limits rather than exact numbers.

As usually defined, the Ki is the equilibrium dissociation constant of an inhibitor or competing ligand from its target. Read a low Ki as tighter binding.

Test [1] deals with T1, D(2) dopamine receptor (Homo sapiens, UniProt P14416).
Description: (§1) Displacement of [3H]N-methylspiperone from human dopamine D2 receptor by liquid scintillation counting
In test [2] the target is T2, D(3) dopamine receptor (Homo sapiens, UniProt P35462).
Description: (§2) Displacement of [3H]N-methylspiperone from human dopamine D3 receptor by liquid scintillation counting
The target in test [3] is T3, D(4) dopamine receptor (Homo sapiens, UniProt P21917).
T3 sequence (P21917 whole entry): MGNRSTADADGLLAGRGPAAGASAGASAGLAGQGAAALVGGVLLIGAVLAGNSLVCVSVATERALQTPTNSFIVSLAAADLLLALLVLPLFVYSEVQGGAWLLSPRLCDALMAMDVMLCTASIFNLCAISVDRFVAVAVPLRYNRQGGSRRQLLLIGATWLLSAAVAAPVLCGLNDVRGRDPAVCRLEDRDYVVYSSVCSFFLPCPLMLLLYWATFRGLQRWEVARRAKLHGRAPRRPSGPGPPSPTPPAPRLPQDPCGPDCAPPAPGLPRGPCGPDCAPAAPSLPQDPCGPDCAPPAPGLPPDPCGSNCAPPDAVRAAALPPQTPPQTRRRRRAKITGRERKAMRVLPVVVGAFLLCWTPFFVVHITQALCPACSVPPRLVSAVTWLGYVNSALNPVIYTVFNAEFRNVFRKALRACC

The target of test [4] is T2, D(3) dopamine receptor. This is another data set of the same source.
Description: as §2
Test [5] concerns the target T1, D(2) dopamine receptor. The source holds these as a separate data set.
Description: as §1
The target in test [6] is T4, D(4) dopamine receptor (Homo sapiens) (UniProt P21917).
T4 sequence (whole entry): T3 sequence (P21917 whole entry)

T2 sequence (P35462 whole entry): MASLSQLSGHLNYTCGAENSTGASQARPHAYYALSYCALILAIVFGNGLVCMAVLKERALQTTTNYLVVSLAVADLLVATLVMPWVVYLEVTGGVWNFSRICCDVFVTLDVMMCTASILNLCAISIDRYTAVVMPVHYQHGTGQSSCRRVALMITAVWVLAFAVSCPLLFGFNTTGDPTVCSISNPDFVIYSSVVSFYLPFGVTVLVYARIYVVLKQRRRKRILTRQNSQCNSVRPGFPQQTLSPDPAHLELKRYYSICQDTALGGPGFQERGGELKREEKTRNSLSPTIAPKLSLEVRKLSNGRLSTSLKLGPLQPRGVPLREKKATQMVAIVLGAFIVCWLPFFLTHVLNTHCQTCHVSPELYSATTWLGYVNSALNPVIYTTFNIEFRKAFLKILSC
T1 sequence (P14416 whole entry): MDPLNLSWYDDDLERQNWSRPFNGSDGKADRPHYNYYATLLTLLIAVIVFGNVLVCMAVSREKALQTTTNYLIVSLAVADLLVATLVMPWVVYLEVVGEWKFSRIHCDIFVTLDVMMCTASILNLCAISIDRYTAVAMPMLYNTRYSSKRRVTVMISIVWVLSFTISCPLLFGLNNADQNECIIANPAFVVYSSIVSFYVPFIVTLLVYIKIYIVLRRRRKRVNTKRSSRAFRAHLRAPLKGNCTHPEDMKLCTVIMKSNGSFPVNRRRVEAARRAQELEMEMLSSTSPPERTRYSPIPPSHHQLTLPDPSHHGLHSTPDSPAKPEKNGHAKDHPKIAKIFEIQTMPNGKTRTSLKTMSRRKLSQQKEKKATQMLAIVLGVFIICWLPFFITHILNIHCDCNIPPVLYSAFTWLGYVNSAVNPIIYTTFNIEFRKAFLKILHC

Regarding `c1cnc(N2CCN(Cc3c[nH]c4ncccc34)CC2)nc1`, the inhibitory constant (Ki) was determined as 1170 nM in test [1], 1500 nM in test [2] and 56 nM in test [3].

Consider `O[C@]1(c2ccc(Cl)cc2)C[C@H]2CC[C@@H](C1)N2Cc1c[nH]c2ccccc12`, for which the Ki in test [2] stood at 25 nM; in test [3], 3010 nM.

Turning to `OC1(c2ccc(Cl)cc2)CC2CCC(C1)N2CCc1c[nH]c2ccccc12` (stereo not drawn), the Ki in test [1] was determined as 53 nM; in test [2], 18 nM.

In turn, `O=C(CCCN1CCN(c2ccc(Cl)cc2)CC1)c1ccc(F)cc1` yielded an inhibitory constant (Ki) in test [3] of 17 nM.

Regarding `O=C(CCCN1CC2CC1N(c1ccc(Cl)cc1)C2)c1ccc(F)cc1` (stereo not drawn), the figures for the Ki in test [1], in test [2] and in test [3] were 170 nM, 220 nM and 513 nM, respectively.

Consider `Clc1ccc(N2CCCN(Cc3c[nH]c4ncccc34)CC2)cc1`, for which the Ki in test [1] turned out to be 970 nM; in test [2] it was 370 nM; in test [3], 18.6 nM.

As to `OC1(c2ccc(Cl)cc2)CCN(Cc2c[nH]c3ncccc23)C1` (stereo not drawn), the result in test [4] and in test [5] was inactive. In test [3], this molecule showed an inhibition constant Ki of 1210 nM.

For `OC1(c2ccc(Cl)cc2)CCN(CCc2c[nH]c3ccccc23)C1` (stereo not drawn), the outcome in test [5] and in test [6] was inactive. Also, the Ki in test [2] was determined as 3070 nM.

For `Clc1ccc(N2CC3CC2CN3Cc2c[nH]c3ncccc23)cc1` (stereo not drawn), the results for the Ki in test [1], in test [2] and in test [3] were 62 nM, 11 nM and 69 nM, respectively.

As to `OC1(c2ccc(Cl)cc2)CCN(Cc2c[nH]c3ccccc23)C1` (stereo not drawn), the result in test [5] was inactive. Also, the inhibitory constant (Ki) was found to be 2870 nM in test [2] and 816 nM in test [3].

Consider `O=C(CN1C2CCC1CC(O)(c1ccc(Cl)cc1)C2)c1ccc(F)cc1` (stereo not drawn), for which the inhibition constant (Ki) in test [2] is greater than 10000 nM.

`OC1(c2ccc(Cl)cc2)CC2CCC(C1)N2Cc1c[nH]c2ncccc12` (stereo not drawn) returned an inhibition constant (Ki) in test [1] of 588 nM.
